According to patent publication US20210008161A1, “METHODS AND COMPOSITIONS FOR IMPROVED HOMOLOGY DIRECTED REPAIR” (CRISPR THERAPEUTICS AG, priority 2019, published 2021):

Assays:
Format in all cases: cell-based, human
[1] = system: HEK293 T cells; assay: TIDE analysis of DSB repair at CFTR gene locus
Description: The effect of Nu7441 treatment on HDR was also evaluated at the CFTR gene locus in HEK293 T cells. To do so cells were electroporated with RNP comprising Cas9 and a gRNA targeting the CFTR gene locus (SEQ ID NO: 18; sgRNA target sequence identified by SEQ ID NO: 19). 2×10^5 cells were edited with 1 μM Cas9 and 1.5 μM gRNA. The cells were transfected with a ssODN donor (SEQ ID NO: 42). Cells were edited with 100 μM ssODN. The ssODN contains homology arms spanning both sides of the DSB induced by the Cas9-guide and is designed to include 3 additional base pairs (GCA) into the CFTR gene to aid detection of HDR. Cells were also treated with 5 μM Nu7441. Gene correction was assessed by TIDE analysis. TIDE analysis uses a pair of PCR reactions and standard capillary sequencing runs to identify mutations induced at the site of a DSB (see e.g., Brinkman (2014) Nucleic Acids Res 42:e168). The type of mutation induced at the DSB was indicative of the pathway used to repair the DSB. Formation of an indel comprising either an insertion or a deletion of bases was considered due to NHEJ repair; a deletion of 2-3 base pairs was considered due to MMEJ repair; while an insertion of 3 base pairs was considered due to HDR repair. Shown in FIGS. 4A-4B are mutations introduced at the DSB for cells treated with Nu7441 (FIG. 4B) compared to a DMSO negative control (FIG. 4A). […] This reduction in NHEJ repair in the presence of Nu7441 was evaluated with an additional ssODN donor (SEQ ID NO: 41).

[2] = system: CD34-expressing LT-HSPCs; assay: HDR insertion of AAV-delivered GFP donor into HBB locus (GFP fluorescence)
Description: Frozen CD34-expressing LT-HSPCs derived from plerixafor (i.e., Mozibil®)+GCSF-dual mobilized peripheral blood obtained from healthy human donors were purchased from a commercial vendor. LT-HSPCs were maintained in culture media comprised of the reagents shown in Table 4 and were incubated at 37° C., 5% carbon dioxide, 4% oxygen. […] 2×10^5 cells were edited with 3 μg Cas9 and 3 μg gRNA. The target gene sequence (including target sequence with PAM), R02 spacer sequence, and R02 sgRNA sequence are identified in Table 3.
The cells were transfected with a dsDNA homology donor encoding GFP under a SFFV promoter (SEQ ID NO: 60) that was delivered by AAV (SEQ ID NO: 56). […] The HDR efficiency was determined by measuring the level of GFP fluorescence in the cells following electroporation. To determine the effect of 53BP1 inhibition on HDR efficiency, the 53BP1 inhibitor i53 was introduced as an mRNA-encoded protein to the cells during electroporation with Cas9/gRNA RNP and AAV DNA that serves as a donor for homology directed repair.
The effect of 53BP1 inhibition on HDR efficiency was compared to other mRNA-encoded proteins that inhibit the NHEJ pathway. These included the proteins CYREN1 and CYREN2 that inhibit Ku70/80, a heterodimer that binds DNA blunt ends to prevent processing of 3′ single-stranded DNA tails necessary for HDR repair. Cells were electroporated with RNP, an AAV-GFP homology donor and mRNA encoding either i53 (mRNA ORF shown in SEQ ID NO: 69), CYREN1, or CYREN2.
The effect of treatment with i53 and Nu7441 was compared for improving efficiency of HDR repair of the HBB locus. Cells were treated with different doses of Nu7441 or with mRNA encoding i53 (ORF shown by SEQ ID NO: 69).

[3] = system: hTERT RPE-1 cells; assay: HDR insertion of AAV-delivered GFP donor into AAVS1 locus (GFP fluorescence); conditions: AAV (DJ serotype) GFP donor and mRNA encoding i53, over AAV alone, FIG. 7
Description: RPE1 cells were lipofected with RNP comprised of Cas9 protein and gRNA targeting the AAVS1 locus (target sequence shown in SEQ ID NO: 3; spacer sequence shown in SEQ ID NO: 4). Cells were edited with 1 μg Cas9 and 1 μg gRNA. Cells were infected with AAV containing homology donor DNA encoding GFP (DJ serotype) as well as mRNA encoding i53 (mRNA ORF shown in SEQ ID NO: 69). […] HDR efficiency was determined by measuring the level of GFP fluorescence in the cells following gene-editing.

[4] = system: wild-type CD34-expressing LT-HSPCs; assay: HDR and INDEL frequency at HBB locus with AAV.323 donor by NGS
Excerpt: The AAV-encoded homology donor used for correction is referred to as “AAV.323” and is identified by sequence in Table 8.

[5] = system: patient-derived PBMCs; assay: SCD gene correction by HDR and INDEL frequency by NGS in patient-derived PBMCs
Description: It was further evaluated if editing of patient-derived PBMCs in the presence of i53 would yield high levels of correction of the HBB gene. […] The PBMCs were expanded in StemSpan SFEM II (1×)+StemSpan CC100 (1×)+Dexamethasone 1 μM+hEPO 2 IU/mL at 37° C. under normoxic conditions (20% O2 concentration). The cells were edited following five days of in vitro culture. […] On day 8, the cells were transferred to Phase 1 media, and differentiation to erythrocytes was performed through day 18 as described above. Efficiency of HDR at the HBB gene locus was evaluated on day 12 using the NGS assay described in Example 4. Also evaluated was the frequency of INDELs at the R02 cut-site as measured by NGS.

[6] = system: patient-derived PBMCs; assay: Hemoglobin expression by HPLC in edited patient-derived PBMCs; conditions: FIG. 36
Description: Briefly, on day 18 post-editing, 1×10^6 cells were harvested, centrifuged, and washed with PBS. The cells were prepared for HPLC analysis. Hemoglobin variants were quantified in cell samples using reverse-phase HPLC chromatography and gradient elution. […] Thus, high levels of HDR achieved with i53 contribute to normalization of hemoglobin expression products.
Hemoglobin expression was measured by HPLC analysis for edited PBMCs as described above.

[7] = either ssODN donor (SEQ ID NO: 41 or 42), FIG. 5
[8] = 0.75 μg mRNA encoding i53, 5 μM Nu7441, control mRNA DM, FIG. 6C
[9] = compared to mock EP control cells

| Compound | HDR repair (+3 base pair insertion) at the DSB ([1]; 5 μM Nu7441, ssODN SEQ ID NO: 42, FIG. 4) | indel formation (NHEJ repair) ([1]; 5 μM Nu7441, ssODN SEQ ID NO: 42, vs DMSO negative control, FIG. 4) | HDR repair [1, 7] | indel formation due to NHEJ repair [1, 7] | HDR efficiency [2, 8] | HDR efficiency at each dose ([2]; 0.5, 1, and 2 μg i53 mRNA, FIG. 6A) | fold increase in HDR efficiency ([2]; GFP donor into HBB locus, mRNA encoding i53, over RNP+AAV-only, FIG. 6A) | HDR efficiency ([2]; mRNA-encoded proteins, i53 mRNA at 0.3 μg or 1 μg, over RNP+AAV-only, FIG. 6B) | HDR efficiency [3] | fold increase in HDR efficiency for incorporation of the AAV.323 gene-edit ([4]; 1 μg i53 mRNA, day 2 post-editing, compared to R02+AAV.323 only, FIG. 30A) | frequency of INDELs at the R02 cut site ([4]; i53 vs R02+AAV.323 only, combination vs i53 only, FIG. 30B) | frequency of INDELs ([5]; compared to control cells, FIG. 35B) | frequency of correction of the HBB gene by HDR repair ([5]; day 12, FIG. 35A) | level of HDR repair and frequency of INDELs in HBB, PBMCs vs CD34-expressing LT-HSPCs ([5]; edited in the presence of i53) | expression of HbA [6, 9] | expression of HbS [6, 9] | ratio of HbS to HbA, PBMCs vs CD34-expressing LT-HSPCs ([6]; edited in the presence of i53) |
| --- | --- | --- | --- | --- | --- | --- | --- | --- | --- | --- | --- | --- | --- | --- | --- | --- | --- |
| O=c1cc(N2CCOCC2)oc2c(-c3cccc4c3sc3ccccc34)cccc12 [Nu7441] | much higher levels | dramatically reduced | increase | decreased levels | comparable increase |  |  |  |  |  |  |  |  |  |  |  |  |
| i53: polypeptide inhibitor of 53BP1 (SEQ ID NO: 70), introduced as an mRNA-encoded protein (ORF SEQ ID NO: 69) |  |  |  |  | comparable increase | improved | approximately 1.3 fold | increased | increase | approximately 1.5 fold | decreased | reduced | approximately 60% | comparable | increased | significant reduction | comparable |
